Values after ≈ are worked out from the molar mass of the structure shown.
How the values were obtained:
[1] = system: E. coli ATCC 25922; experiment: microbe, parasite or virus in culture; format: cell-based; details: Escherichia coli, ATCC25922, read-out: MIC E. coli 25922
[2] = system: P. aeruginosa (ΔmexAB-oprM); experiment: Broth microdilution MIC in CAMHB; format: cell-based; details: Pseudomonas aeruginosa; read-out: MIC P. aeruginosa ΔmexAB-oprM
[3] = system: K. pneumoniae SI-117; experiment: microbe, parasite or virus in culture; format: cell-based; details: Klebsiella pneumoniae, SI117, read-out: MIC K. pneumoniae SI-117
[4] = target: T1, PBP3 from Pseudomonas aeruginosa (PAO1) (Pseudomonas aeruginosa, UniProt G3XD46); experiment: Bocillin-FL fluorescence polarization competition binding, P. aeruginosa PBP3; details: Binding affinity to P. aeruginosa PBP3; fluorescence polarization competition binding assay using Bocillin-FL; read-out: P. aeruginosa PBP3 Potency
T1 construct: made in house
How it was run: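 Purified PBPs pre-incubated with inhibitor (E. coli PBP3 1.5 μM, 30 min; P. aeruginosa PBP3 0.75 μM, A. baumannii PBP1a 1 μM and PBP3 0.2 μM, 15 min), then Bocillin-FL 0.1 μM (0.05 μM for PBP1a) added; FP read up to 60 min. EC50 = concentration halving bound Bocillin-FL.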

T1 sequence (G3XD46 whole entry): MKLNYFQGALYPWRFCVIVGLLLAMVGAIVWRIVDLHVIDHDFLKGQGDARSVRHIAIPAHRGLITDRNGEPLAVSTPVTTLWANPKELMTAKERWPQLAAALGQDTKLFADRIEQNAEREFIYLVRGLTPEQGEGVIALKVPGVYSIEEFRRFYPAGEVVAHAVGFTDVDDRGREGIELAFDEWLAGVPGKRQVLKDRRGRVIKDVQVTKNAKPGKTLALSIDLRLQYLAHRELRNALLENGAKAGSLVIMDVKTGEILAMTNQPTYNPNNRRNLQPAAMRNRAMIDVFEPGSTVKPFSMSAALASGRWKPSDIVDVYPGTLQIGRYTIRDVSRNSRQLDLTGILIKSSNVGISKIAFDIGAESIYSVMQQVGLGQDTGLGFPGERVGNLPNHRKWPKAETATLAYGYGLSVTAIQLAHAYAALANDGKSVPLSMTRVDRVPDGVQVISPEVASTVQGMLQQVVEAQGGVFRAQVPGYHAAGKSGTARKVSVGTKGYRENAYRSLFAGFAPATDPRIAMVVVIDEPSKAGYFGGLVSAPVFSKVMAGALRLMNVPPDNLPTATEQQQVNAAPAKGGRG

Row | Compound | MIC [1] [µg/mL] | MIC [2] [µg/mL] | MIC [3] [µg/mL] | IC50 [4] [µM]
1 | N#Cc1ccnc(C(=O)NC(C(=O)N[C@H]2Cc3cccc(C(=O)O)c3OB2O)c2ccc(P(=O)(O)O)cc2)c1 (stereo partly drawn) [Example 179, (3R)-3-(2-(4-cyanopicolinamido)-2-(4-phosphonophenyl)acetamido)-2-hydroxy-3,4-dihydro-2H-benzo[e][1,2]oxaborinine-8-carboxylic acid] | > 128 | > 128 | > 128 | < 10
2 | N#Cc1cccc(C(=O)N[C@@H](C(=O)N[C@H]2Cc3cccc(C(=O)O)c3OB2O)c2ccc(P(=O)(O)O)cc2)n1 [Example 180, (R)-3-((R)-2-(6-cyanopicolinamido)-2-(4-phosphonophenyl)acetamido)-2-hydroxy-3,4-dihydro-2H-benzo[e][1,2]oxaborinine-8-carboxylic acid] | > 128 | 32 to 64 (≈ 58.2 to 116 µM) | > 128 | < 10
3 | CC(C)(C)C(=O)NC(C(=O)N[C@H]1Cc2cccc(C(=O)O)c2OB1O)c1ccc(P(=O)(O)O)cc1 (stereo partly drawn) [Example 29, (3R)-2-hydroxy-3-(2-(4-phosphonophenyl)-2-pivalamidoacetamido)-3,4-dihydro-2H-benzo[e][1,2]oxaborinine-8-carboxylic acid] | > 128 | 8 to 16 (≈ 15.9 to 31.7 µM) | > 128 | 10 to 50
4 | O=C(N[C@H](C(=O)N[C@H]1Cc2cccc(C(=O)O)c2OB1O)c1ccc(P(=O)(O)O)cc1)c1ccc(C(F)(F)F)cn1 (single isomer, unassigned) [Example 192] | > 128 | 32 to 64 (≈ 53.9 to 108 µM) | > 128 | < 10
5 | O=C(O)c1cccc2c1OB(O)[C@@H](NC(=O)[C@@H](NC(=O)c1ccn[nH]c1=O)c1ccc(P(=O)(O)O)cc1)C2 (single isomer, unassigned) [Example 177] | > 128 | > 128 | > 128 | < 10
6 | CCN1CCN(C(=O)NC(C(=O)N[C@H]2Cc3cccc(C(=O)O)c3OB2O)c2cccc(CP(=O)(O)O)c2)C(=O)C1=O (stereo partly drawn) [Example 22, (3R)-3-(2-(4-ethyl-2,3-dioxopiperazine-1-carboxamido)-2-(3-(phosphonomethyl)phenyl)acetamido)-2-hydroxy-3,4-dihydro-2H-benzo[e][1,2]oxaborinine-8-carboxylic acid] | 32 to 64 (≈ 53.1 to 106 µM) | 8 to 16 (≈ 13.3 to 26.6 µM) | > 128 | < 10
7 | O=C(O)c1cccc2c1OB(O)[C@@H](NC(=O)[C@@H](NC(=O)c1cnc3sccn3c1=O)c1ccc(P(=O)(O)O)cc1)C2 (single isomer, unassigned) [Example 194] | > 128 | 32 to 64 (≈ 53.5 to 107 µM) | > 128 | < 10
8 | CN1CCC[C@@H]1C(=O)N[C@@H](C(=O)N[C@H]1Cc2cccc(C(=O)O)c2OB1O)c1ccc(P(=O)(O)O)cc1 (racemic) [Example 54, (R)-2-hydroxy-3-((S)-2-((R)-1-methylpyrrolidine-2-carboxamido)-2-(4-phosphonophenyl)acetamido)-3,4-dihydro-2H-benzo[e][1,2]oxaborinine-8-carboxylic acid and (R)-2-hydroxy-3-((R)-2-((R)-1-methylpyrrolidine-2-carboxamido)-2-(4-phosphonophenyl)acetamido)-3,4-dihydro-2H-benzo[e][1,2]oxaborinine-8-carboxylic acid] | > 128 | > 128 | > 128 | 50 to 250
9 | O=C(O)c1cccc2c1OB(O)[C@@H](NC(=O)C(NC(=O)[C@H]1CCCN1)c1ccc(P(=O)(O)O)cc1)C2 (stereo partly drawn) [Example 52, (3R)-2-hydroxy-3-(2-(4-phosphonophenyl)-2-((R)-pyrrolidine-2-carboxamido)acetamido)-3,4-dihydro-2H-benzo[e][1,2]oxaborinine-8-carboxylic acid] | > 128 | > 128 | 32 to 64 (≈ 61.9 to 124 µM) | 50 to 250
10 | O=C(O)c1cccc2c1OB(O)[C@@H](NC(=O)C(NC(=O)c1ccc[nH]c1=O)c1ccc(P(=O)(O)O)cc1)C2 (stereo partly drawn) [Example 174, (3R)-2-hydroxy-3-(2-(2-oxo-1,2-dihydropyridine-3-carboxamido)-2-(4-phosphonophenyl)acetamido)-3,4-dihydro-2H-benzo[e][1,2]oxaborinine-8-carboxylic acid] | > 128 | 32 to 64 (≈ 59.1 to 118 µM) | > 128 | 10 to 50
11 | CCN1CCN(C(=O)N[C@H](C(=O)N[C@H]2Cc3ccc(F)c(C(=O)O)c3OB2O)c2ccc(P(=O)(O)O)cc2)C(=O)C1=O (single isomer, unassigned) [Example 9] | > 128 | > 128 | > 128 | 10 to 50
12 | Nc1ncc(C(=O)N[C@@H](C(=O)N[C@H]2Cc3cccc(C(=O)O)c3OB2O)c2ccc(P(=O)(O)O)cc2)s1 (racemic) [Example 50, (R)-3-((S)-2-(2-aminothiazole-5-carboxamido)-2-(4-phosphonophenyl)acetamido)-2-hydroxy-3,4-dihydro-2H-benzo[e][1,2]oxaborinine-8-carboxylic acid and (R)-3-((R)-2-(2-aminothiazole-5-carboxamido)-2-(4-phosphonophenyl)acetamido)-2-hydroxy-3,4-dihydro-2H-benzo[e][1,2]oxaborinine-8-carboxylic acid] | > 128 | 32 to 64 (≈ 58.6 to 117 µM) | > 128 | < 10
13 | CS(=O)(=O)N1CCC[C@H]1C(=O)N[C@H](C(=O)N[C@H]1Cc2cccc(C(=O)O)c2OB1O)c1ccc(P(=O)(O)O)cc1 [Example 43, (R)-2-hydroxy-3-((S)-2-((S)-1-(methylsulfonyl)pyrrolidine-2-carboxamido)-2-(4-phosphonophenyl)acetamido)-3,4-dihydro-2H-benzo[e][1,2]oxaborinine-8-carboxylic acid] | > 128 | > 128 | > 128 | 50 to 250
14 | O=C(O)c1cccc2c1OB(O)[C@@H](NC(=O)[C@H](NC(=O)N1CCCCC1=O)c1ccc(P(=O)(O)O)cc1)C2 [Example 37, (R)-2-hydroxy-3-((R)-2-(2-oxopiperidine-1-carboxamido)-2-(4-phosphonophenyl)acetamido)-3,4-dihydro-2H-benzo[e][1,2]oxaborinine-8-carboxylic acid] | > 128 | 8 to 16 (≈ 14.7 to 29.3 µM) | > 128 | < 10
15 | O=C(O)c1cccc2c1OB(O)[C@@H](NC(=O)C(NC(=O)C1CCCCC1)c1ccc(P(=O)(O)O)cc1)C2 (stereo partly drawn) [Example 31, (3R)-3-(2-(cyclohexanecarboxamido)-2-(4-phosphonophenyl)acetamido)-2-hydroxy-3,4-dihydro-2H-benzo[e][1,2]oxaborinine-8-carboxylic acid] | > 128 | > 128 | > 128 | 10 to 50
16 | CS(=O)(=O)N1CCC[C@@H]1C(=O)N[C@H](C(=O)N[C@H]1Cc2cccc(C(=O)O)c2OB1O)c1ccc(P(=O)(O)O)cc1 [Example 34, (R)-2-hydroxy-3-((S)-2-((R)-1-(methylsulfonyl)pyrrolidine-2-carboxamido)-2-(4-phosphonophenyl)acetamido)-3,4-dihydro-2H-benzo[e][1,2]oxaborinine-8-carboxylic acid] | > 128 | > 128 | > 128 | 50 to 250
17 | O=C(O)c1cccc2c1OB(O)[C@@H](NC(=O)[C@H](NC(=O)c1c[nH]ccc1=O)c1ccc(P(=O)(O)O)cc1)C2 [Example 175, (R)-2-hydroxy-3-((R)-2-(4-oxo-1,4-dihydropyridine-3-carboxamido)-2-(4-phosphonophenyl)acetamido)-3,4-dihydro-2H-benzo[e][1,2]oxaborinine-8-carboxylic acid] | 32 to 64 (≈ 59.1 to 118 µM) | 8 to 16 (≈ 14.8 to 29.6 µM) | 32 to 64 (≈ 59.1 to 118 µM) | < 10
18 | CS(=O)(=O)NC(C(=O)N[C@H]1Cc2cccc(C(=O)O)c2OB1O)c1ccc(P(=O)(O)O)cc1 (stereo partly drawn) [Example 59, (3R)-2-hydroxy-3-(2-(methylsulfonamido)-2-(4-phosphonophenyl)acetamido)-3,4-dihydro-2H-benzo[e][1,2]oxaborinine-8-carboxylic acid] | > 128 | > 128 | > 128 | > 250
19 | Cn1cccc(C(=O)N[C@H](C(=O)N[C@H]2Cc3cccc(C(=O)O)c3OB2O)c2ccc(P(=O)(O)O)cc2)c1=O (single isomer, unassigned) [Example 181] | > 128 | > 128 | > 128 | 50 to 250
20 | O=C(O)c1cccc2c1OB(O)[C@@H](NC(=O)[C@H](NC(=O)[C@@H]1CCCN1)c1ccc(P(=O)(O)O)cc1)C2 [Example 173, (R)-2-hydroxy-3-((R)-2-(4-phosphonophenyl)-2-((S)-pyrrolidine-2-carboxamido)acetamido)-3,4-dihydro-2H-benzo[e][1,2]oxaborinine-8-carboxylic acid] | > 128 | 32 to 64 (≈ 61.9 to 124 µM) | 32 to 64 (≈ 61.9 to 124 µM) | 10 to 50
21 | CN1CCC[C@H]1C(=O)NC(C(=O)N[C@H]1Cc2cccc(C(=O)O)c2OB1O)c1ccc(P(=O)(O)O)cc1 (stereo partly shown) [Example 66] | > 128 | 32 to 64 (≈ 60.2 to 120 µM) | > 128 | 10 to 50
22 | CC(C)S(=O)(=O)NC(C(=O)N[C@H]1Cc2cccc(C(=O)O)c2OB1O)c1ccc(P(=O)(O)O)cc1 (stereo partly drawn) [Example 60, (3R)-2-hydroxy-3-(2-((1-methylethyl)sulfonamido)-2-(4-phosphonophenyl)acetamido)-3,4-dihydro-2H-benzo[e][1,2]oxaborinine-8-carboxylic acid] | > 128 | > 128 | > 128 | 50 to 250

Source: US20240270762A1, “PENICILLIN-BINDING PROTEIN INHIBITORS” (priority 2021, published 2024)
